Test results published in US20020137929A1, “1 - (3-heterocyclylphenyl) isothiourea, -isourea, -guanidine and -amidine herbicidal agents” (Intellectual Property Department, BASF Aktiengesellschaft, priority 1998, published 2002).

Assays:
[1] = test system: GLXMAW (Soybean, Williams); assay: Preemergence herbicidal evaluation; format: in vivo, Glycine max, (L.) Merr. cv Williams; conditions: rated 4-5 weeks after treatment
In short: (§1)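 Steps: mix seeds into potting soil; plant atop ~1 inch soil; spray compound in aqueous acetone (~0.0156-0.500 kg/ha equivalent); maintain in greenhouse with watering; rate visually 0-9 versus control at 4-5 weeks.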

ECHCG (Barnyardgrass) = assay: Postemergence herbicidal evaluation; format: in vivo, Echinochloa crus-galli; conditions: postemergence
In short: (§2)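 Two-week seedlings sprayed postemergence at 40 psi; formulation: 1:1 acetone/water, 0.5% TWEEN 20; application ≈0.0156–0.500 kg/ha. Greenhouse grow-out, then 0–9 visual scoring at 4–5 weeks.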

CYPIR (Rice Flatsedge) = assay: Preemergence weed control under flooded paddy conditions; format: in vivo, Cyperus iria; conditions: rated 3-4 weeks after treatment
In short: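 Ratings on a 0-9 visual scale cover stand, vigor, malformation, size, chlorosis and overall appearance relative to a control, taken three to four weeks post-treatment. Application was into flood water over freshly sown silt loam at roughly 0.0313 to 0.500 kg/ha.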

CASOB (Sicklepod) = assay: Postemergence herbicidal evaluation; format: in vivo, Cassia obtusifolia; conditions: postemergence
In short: as §2

[2] = test system: CHEAL (Lambsquarters, Common); assay: Postemergence herbicidal evaluation; format: in vivo, Chenopodium album; conditions: postemergence
In short: as §2

SETVI (Foxtail, Green) = assay: Preemergence herbicidal evaluation; format: in vivo, Setaria viridis; conditions: rated 4-5 weeks after treatment
In short: as §1

GALAP (Galium) = assay: Preemergence herbicidal evaluation; format: in vivo, Galium aparine; conditions: rated 4-5 weeks after treatment
In short: as §1

[3] = test system: TRZAWR (Wheat, Winter, cv Riband); assay: Preemergence herbicidal evaluation; format: in vivo, Triticum aestivum; conditions: rated 4-5 weeks after treatment
In short: as §1

ORYSAT (Rice, Tebonnet) [4] = assay: Preemergence herbicidal evaluation; format: in vivo, Oryza sativa, (L.) Tebonnet; conditions: rated 4-5 weeks after treatment
In short: as §1

ORYSAT (Rice, Tebonnet) [5] = assay: Postemergence herbicidal evaluation; format: in vivo, Oryza sativa, (L.) Tebonnet; conditions: postemergence
In short: as §2

[6] = test system: SAGPY (Arrowhead (Pygmaea)); assay: Preemergence weed control under flooded paddy conditions; format: in vivo, Sagittaria pygmaea; conditions: rated 3-4 weeks after treatment
In short: (§3)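 Herbicidal effect is scored visually on a 0-9 scale against an untreated control, three to four weeks after compounds are pipetted into the flood water (1.5 to 3 cm deep) over seeds planted in silt loam at 0.5 cm depth. Rates: about 0.0313 to 0.500 kg/ha.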

MOOVA (Monochoria) = assay: as above; format: in vivo, Monochoria vaginalis; conditions: rated 3-4 weeks after treatment
In short: as §3

ZEAMX (Corn, Field) = assay: Preemergence herbicidal evaluation; format: in vivo, Zea mays; conditions: rated 4-5 weeks after treatment
In short: as §1

CC(C)COC(=O)CN1C(=O)CSC1=Nc1cc(-n2c(=O)cc(C(F)(F)F)n(C)c2=O)c(F)cc1Cl [Compound 121, Isobutyl 2-{{2-chloro-5-[3,6-dihydro-3-methyl-2,6-dioxo-4-(trifluoromethyl)-1(2H)-pyrimidinyl]-4-fluorophenyl}imino}-4-oxo-3-thiazolidineacetate]
2.5: Herbicidal rating ORYSAT (ORYSAT (Rice, Tebonnet) [5]; rate 0.0313 kg/ha)
1.0: Preemergence herbicidal rating GLXMAW ([1]; rate 0.1250 kg/ha) | Herbicidal rating CASOB (CASOB (Sicklepod); rate 0.0313 kg/ha)
2.0: Preemergence herbicidal rating GLXMAW ([1]; rate 0.2500 kg/ha) | Preemergence herbicidal rating TRZAWR ([3]; rate 0.0313 kg/ha) | Herbicidal rating ORYSAT (ORYSAT (Rice, Tebonnet) [5]; rate 0.0156 kg/ha)
5.0: Preemergence herbicidal rating GALAP (GALAP (Galium); rate 0.1250 kg/ha) | Preemergence herbicidal rating ORYSAT (ORYSAT (Rice, Tebonnet) [4]; rate 0.2500 kg/ha)
4.0: herbicidal effect rating, CYPIR (CYPIR (Rice Flatsedge); 0.0313 kg/ha) | herbicidal effect rating, CYPIR (CYPIR (Rice Flatsedge); 0.0625 kg/ha) | Herbicidal rating CHEAL ([2]; rate 0.0156 kg/ha) | Preemergence herbicidal rating ORYSAT (ORYSAT (Rice, Tebonnet) [4]; rate 0.1250 kg/ha) | herbicidal effect rating, SAGPY ([6]; 0.0625 kg/ha) | herbicidal effect rating, SAGPY ([6]; 0.1250 kg/ha) | Preemergence herbicidal rating ZEAMX (ZEAMX (Corn, Field); rate 0.0313 kg/ha)
0.0: Preemergence herbicidal rating GLXMAW ([1]; rate 0.0156 kg/ha) | Preemergence herbicidal rating GLXMAW ([1]; rate 0.0313 kg/ha) | Preemergence herbicidal rating GLXMAW ([1]; rate 0.0625 kg/ha) | Herbicidal rating ECHCG (ECHCG (Barnyardgrass); rate 0.0156 kg/ha) | Herbicidal rating ECHCG (ECHCG (Barnyardgrass); rate 0.0313 kg/ha) | Herbicidal rating ECHCG (ECHCG (Barnyardgrass); rate 0.0625 kg/ha) | Herbicidal rating CASOB (CASOB (Sicklepod); rate 0.0156 kg/ha) | Preemergence herbicidal rating SETVI (SETVI (Foxtail, Green); rate 0.0156 kg/ha) | Preemergence herbicidal rating GALAP (GALAP (Galium); rate 0.0156 kg/ha) | Preemergence herbicidal rating GALAP (GALAP (Galium); rate 0.0313 kg/ha) | Preemergence herbicidal rating GALAP (GALAP (Galium); rate 0.0625 kg/ha) | Preemergence herbicidal rating TRZAWR ([3]; rate 0.0156 kg/ha) | Preemergence herbicidal rating ORYSAT (ORYSAT (Rice, Tebonnet) [4]; rate 0.0156 kg/ha) | Preemergence herbicidal rating ORYSAT (ORYSAT (Rice, Tebonnet) [4]; rate 0.0313 kg/ha) | Preemergence herbicidal rating ORYSAT (ORYSAT (Rice, Tebonnet) [4]; rate 0.0625 kg/ha) | herbicidal effect rating, SAGPY ([6]; 0.0313 kg/ha) | Preemergence herbicidal rating ZEAMX (ZEAMX (Corn, Field); rate 0.0156 kg/ha)
3.0: Preemergence herbicidal rating SETVI (SETVI (Foxtail, Green); rate 0.0313 kg/ha) | Preemergence herbicidal rating TRZAWR ([3]; rate 0.0625 kg/ha) | Herbicidal rating ORYSAT (ORYSAT (Rice, Tebonnet) [5]; rate 0.0625 kg/ha)
7.0: Herbicidal rating CASOB (CASOB (Sicklepod); rate 0.0625 kg/ha) | Herbicidal rating CHEAL ([2]; rate 0.0313 kg/ha) | Preemergence herbicidal rating SETVI (SETVI (Foxtail, Green); rate 0.0625 kg/ha) | Preemergence herbicidal rating TRZAWR ([3]; rate 0.1250 kg/ha) | Preemergence herbicidal rating ZEAMX (ZEAMX (Corn, Field); rate 0.1250 kg/ha)
6.0: herbicidal effect rating, SAGPY ([6]; 0.2500 kg/ha) | Preemergence herbicidal rating ZEAMX (ZEAMX (Corn, Field); rate 0.0625 kg/ha)
9.0: Herbicidal rating CHEAL ([2]; rate 0.0625 kg/ha) | Preemergence herbicidal rating SETVI (SETVI (Foxtail, Green); rate 0.1250 kg/ha) | Preemergence herbicidal rating SETVI (SETVI (Foxtail, Green); rate 0.2500 kg/ha) | Preemergence herbicidal rating GALAP (GALAP (Galium); rate 0.2500 kg/ha) | herbicidal effect rating, MOOVA (MOOVA (Monochoria); 0.0313 kg/ha) | herbicidal effect rating, MOOVA (MOOVA (Monochoria); 0.0625 kg/ha) | herbicidal effect rating, MOOVA (MOOVA (Monochoria); 0.1250 kg/ha) | herbicidal effect rating, MOOVA (MOOVA (Monochoria); 0.2500 kg/ha)
8.0: herbicidal effect rating, CYPIR (CYPIR (Rice Flatsedge); 0.1250 kg/ha) | herbicidal effect rating, CYPIR (CYPIR (Rice Flatsedge); 0.2500 kg/ha) | Preemergence herbicidal rating TRZAWR ([3]; rate 0.2500 kg/ha) | Preemergence herbicidal rating ZEAMX (ZEAMX (Corn, Field); rate 0.2500 kg/ha)
